Measurements from the supplement of paper PMC5579334.

Tests used:
[1] = test system: HSC1; assay: relative IC50 (inflection point of fitted dose-response curve, CellTox-Green cytotoxicity, 72 h; top asymptote may be below 50%); higher = less potent
In short: (§1)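 MPNST cell lines and primary human Schwann cells were incubated 72 h at 37 °C in 384-well plates holding five 10-fold compound dilutions. CellTox-Green was added before seeding at a final 1:1000 dilution and reported fluorescence from DNA released by disrupted cells. Signals were scaled to vehicle and positive-control wells, and cultures failing plate quality control were dropped. Drug sensitivity score and relative IC50 come from four-parameter logistic fits, with IC50 censored at the top concentration.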

[2] = test system: HSC2; assay: as above
In short: as §1

[3] = test system: S1507-2; assay: as above
In short: as §1

[4] = test system: STS26T; assay: as above
In short: as §1

[5] = test system: HSC1; assay: relative IC50 (inflection point of fitted dose-response curve, CellTiter-Glo viability, 72 h; top asymptote may be below 50% inhibition); higher = less potent
In short: (§2)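 MPNST cell lines and primary human Schwann cells (750–1000 cells per well) went into 384-well plates preprinted with each compound at five concentrations in 10-fold steps. Plates were incubated 72 h at 37 °C, 5% CO2. Viability was read as CellTiter-Glo ATP luminescence, scaled between vehicle and positive-control wells, with duplicates averaged where present. Percent inhibition is at the top concentration; drug sensitivity score and relative IC50 (censored at top concentration) come from four-parameter logistic fits.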

[6] = test system: HSC2; assay: as above
In short: as §2

[7] = test system: STS26T; assay: as above
In short: as §2

[8] = test system: HS-PSS; assay: relative IC50 (inflection point of fitted dose-response curve, CellTox-Green cytotoxicity, 72 h; top asymptote may be below 50%); higher = less potent
In short: as §1

[9] = test system: ST8814; assay: as above
In short: as §1

[10] = test system: HS-PSS; assay: relative IC50 (inflection point of fitted dose-response curve, CellTiter-Glo viability, 72 h; top asymptote may be below 50% inhibition); higher = less potent
In short: as §2

[11] = test system: HS-Sch-2; assay: as above
In short: as §2

[12] = test system: S462; assay: as above
In short: as §2

[13] = test system: ST8814; assay: as above
In short: as §2

[14] = test system: YST-1; assay: as above
In short: as §2

SMILES	relative IC50 [1]	relative IC50 [2]	relative IC50 [3]	relative IC50 [4]	relative IC50 [5]	relative IC50 [6]	relative IC50 [7]	relative IC50 [8]	relative IC50 [9]	relative IC50 [10]	relative IC50 [11]	relative IC50 [12]	relative IC50 [13]	relative IC50 [14]
CCCCCCCCCCCCCCCCCCOP(=O)([O-])OC1CC[N+](C)(C)CC1 [Perifosine aq/PBS]	> 2.5 µM	> 2.5 µM	> 2.5 µM	0.963 µM	> 2.5 µM	> 2.5 µM	0.602 µM							
CN1CCN(c2nc(C3=C(c4c[nH]c5ccccc45)C(=O)NC3=O)c3ccccc3n2)CC1 [Sotrastaurin]	> 10 µM	> 10 µM	> 10 µM	> 10 µM	> 10 µM	> 10 µM	> 10 µM	> 10 µM	> 10 µM	> 10 µM	> 10 µM			
C[C@H]1C[C@@H]2[C@H]([C@@H](O)C[C@@]3(C)[C@H]2CC[C@]3(O)C(=O)CO)[C@@]2(C)C=CC(=O)C=C12 [Methylprednisolone]	> 10 µM	> 10 µM	> 10 µM	> 10 µM	> 10 µM	> 10 µM	> 10 µM	> 10 µM	> 10 µM	> 10 µM				
C[C@@H]1C[C@H]2[C@@H]3CCC4=CC(=O)C=C[C@]4(C)[C@@]3(F)[C@@H](O)C[C@]2(C)[C@@]1(O)C(=O)CO [Dexamethasone]	> 10 µM	> 10 µM	> 10 µM	> 10 µM	> 10 µM	> 10 µM	> 10 µM	> 10 µM	> 10 µM	> 10 µM				
Cn1cnc2c(F)c(Nc3ccc(Br)cc3F)c(C(=O)NOCCO)cc21 [MEK-162]	> 1 µM	> 1 µM	> 1 µM	> 1 µM		> 1 µM			> 1 µM			0.124 µM		
C[C@@H]1CCN(C(=O)CC#N)C[C@@H]1N(C)c1ncnc2[nH]ccc12 [Tofacitinib]	> 5 µM	> 5 µM	> 5 µM	> 5 µM		0.742 µM		> 5 µM	> 5 µM	> 5 µM	> 5 µM		> 5 µM	> 5 µM
CCCC(CCC)C(=O)O [Valproic acid aq]	> 1000 µM	> 1000 µM	> 1000 µM		269 µM	217 µM	254 µM						168 µM	
Cc1ccc(F)c(NC(=O)Nc2ccc(-c3cccc4[nH]nc(N)c34)cc2)c1 [Linifanib]	> 1 µM	> 1 µM	> 1 µM	> 1 µM	> 1 µM		> 1 µM	> 1 µM	> 1 µM	> 1 µM	> 1 µM			> 1 µM
NC1(c2ccc(-c3nc4ccn5c(=O)[nH]nc5c4cc3-c3ccccc3)cc2)CCC1 [MK-2206]	> 1 µM	> 1 µM	> 1 µM	> 1 µM		> 1 µM	0.118 µM	> 1 µM	> 1 µM				> 1 µM	0.128 µM
